Where two headings read alike, the source gives them in different places.
Key:
[1] = for Solubility (mass %): phenol/acetone/water (50/50/5) weight mixture; for times more soluble than potassium sulfate: phenol/acetone/water (50/50/5)
Experimental: 25 g of test solvent are placed in a 50 mL three-necked flask equipped with a condenser, a thermometer and a magnetic stirrer. The solvent is brought to the desired temperature and the alkanesulfonic acid salt is then added portionwise until cloudiness appears, indicating saturation of the medium.
The solubility is calculated in the following manner:
% salt solubility=m/(m+M)×100
with m=mass of dissolved salt, M=mass of solvent
1. Solubility of the Salts in a Phenol/Acetone/Water (50/50/5) Weight Mixture:
A first measurement is taken at 20° C. at atmospheric pressure, and a second measurement is then taken at 60° C. […] 1.1 Potassium Salts

[2] = for Solubility (mass %): phenol/water (95/5) weight mixture; for times more soluble than potassium sulfate: phenol/water (95/5)
Experimental: Solubility of the Salts in a Phenol/Water (95/5) Weight Mixture:
A first measurement is taken at 55° C. at atmospheric pressure, and a second measurement is then taken at 100° C.

Q: What does the source list for `CS(=O)(=O)[O-].[K+]` [CH3SO3K, potassium methanesulfonate]?
A: Solubility (mass %) ([1]; 20° C., atmospheric pressure): 0.80% mass %; Solubility (mass %) ([1]; 60° C.): 0.80% mass %; times more soluble than potassium sulfate ([1]; at 20° C.): more than 6.7 times; times more soluble than potassium sulfate ([1]; at 60° C.): more than 6.7 times; Solubility (mass %) ([2]; 55° C., atmospheric pressure): 1.90% mass %; Solubility (mass %) ([2]; 100° C.): 2.40% mass %; times more soluble than potassium sulfate ([2]; printed as at 20° C.): 15 times; times more soluble than potassium sulfate ([2]; printed as at 60° C.): 8 times
